In one assay the target is T1, human Nav1.1 (Homo sapiens, UniProt P35498).
T1 construct: host or cells: HEK293
The experiment in a line: Amplification of Nav1.1-derived voltage-dependent sodium current (Nav1.1 current), cell line stably expressing human Nav1.1, automated patch clamp. Type of assay: cell-based. Particulars: for activation at 3 µM: compound 3 μmol/L; for activation at 3 µM / activation at 1 µM / activation at 10 µM: read-out: Nav1.1 current amplification rate (%). Put shortly:
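Automated whole-cell voltage-clamp recordings used HEK293 cells stably expressing human Nav1.1, keeping only cells with >500 pA current, with currents evoked by ramp voltage. Compounds were applied in extracellular fluid with 1% DMSO, and amplification (%) was computed from peak current or AUC after versus before addition.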

Another assay has as its target T2, human Nav1.5 (Homo sapiens, UniProt Q14524).
T2 construct: expressed in transfected cells; host or cells: CHO-K1 (T-REx System, ThermoFisher Scientific)
The experiment in a line: Amplification of Nav1.5-derived voltage-dependent sodium current (Nav1.5 current), cell line stably expressing human Nav1.5, automated patch clamp. Type of assay: cell-based. Particulars: for activation at 3 µM: compound 3 μmol/L; for activation at 3 µM / activation at 1 µM / activation at 10 µM: read-out: Nav1.5 current amplification rate (%).

Setting [1] is: 10 μmol/L compound, change of the area under the curve of Nav1.1 current (Test Result 1).
The mark [2] stands for this setting: 10 μmol/L compound, change of the area under the curve of Nav1.5 current (Test Result 1).
Setting [3] is: compound 1 μmol/L, HEK293 stably expressing human Nav1.1.
[4] abbreviates: compound 1 μmol/L, CHO-K1 stably expressing human Nav1.5.
[5] abbreviates: HEK293 stably expressing human Nav1.1.
The mark [6] stands for this setting: CHO-K1 stably expressing human Nav1.5.

T2 sequence (Q14524 1-2015 isoform Q14524-2): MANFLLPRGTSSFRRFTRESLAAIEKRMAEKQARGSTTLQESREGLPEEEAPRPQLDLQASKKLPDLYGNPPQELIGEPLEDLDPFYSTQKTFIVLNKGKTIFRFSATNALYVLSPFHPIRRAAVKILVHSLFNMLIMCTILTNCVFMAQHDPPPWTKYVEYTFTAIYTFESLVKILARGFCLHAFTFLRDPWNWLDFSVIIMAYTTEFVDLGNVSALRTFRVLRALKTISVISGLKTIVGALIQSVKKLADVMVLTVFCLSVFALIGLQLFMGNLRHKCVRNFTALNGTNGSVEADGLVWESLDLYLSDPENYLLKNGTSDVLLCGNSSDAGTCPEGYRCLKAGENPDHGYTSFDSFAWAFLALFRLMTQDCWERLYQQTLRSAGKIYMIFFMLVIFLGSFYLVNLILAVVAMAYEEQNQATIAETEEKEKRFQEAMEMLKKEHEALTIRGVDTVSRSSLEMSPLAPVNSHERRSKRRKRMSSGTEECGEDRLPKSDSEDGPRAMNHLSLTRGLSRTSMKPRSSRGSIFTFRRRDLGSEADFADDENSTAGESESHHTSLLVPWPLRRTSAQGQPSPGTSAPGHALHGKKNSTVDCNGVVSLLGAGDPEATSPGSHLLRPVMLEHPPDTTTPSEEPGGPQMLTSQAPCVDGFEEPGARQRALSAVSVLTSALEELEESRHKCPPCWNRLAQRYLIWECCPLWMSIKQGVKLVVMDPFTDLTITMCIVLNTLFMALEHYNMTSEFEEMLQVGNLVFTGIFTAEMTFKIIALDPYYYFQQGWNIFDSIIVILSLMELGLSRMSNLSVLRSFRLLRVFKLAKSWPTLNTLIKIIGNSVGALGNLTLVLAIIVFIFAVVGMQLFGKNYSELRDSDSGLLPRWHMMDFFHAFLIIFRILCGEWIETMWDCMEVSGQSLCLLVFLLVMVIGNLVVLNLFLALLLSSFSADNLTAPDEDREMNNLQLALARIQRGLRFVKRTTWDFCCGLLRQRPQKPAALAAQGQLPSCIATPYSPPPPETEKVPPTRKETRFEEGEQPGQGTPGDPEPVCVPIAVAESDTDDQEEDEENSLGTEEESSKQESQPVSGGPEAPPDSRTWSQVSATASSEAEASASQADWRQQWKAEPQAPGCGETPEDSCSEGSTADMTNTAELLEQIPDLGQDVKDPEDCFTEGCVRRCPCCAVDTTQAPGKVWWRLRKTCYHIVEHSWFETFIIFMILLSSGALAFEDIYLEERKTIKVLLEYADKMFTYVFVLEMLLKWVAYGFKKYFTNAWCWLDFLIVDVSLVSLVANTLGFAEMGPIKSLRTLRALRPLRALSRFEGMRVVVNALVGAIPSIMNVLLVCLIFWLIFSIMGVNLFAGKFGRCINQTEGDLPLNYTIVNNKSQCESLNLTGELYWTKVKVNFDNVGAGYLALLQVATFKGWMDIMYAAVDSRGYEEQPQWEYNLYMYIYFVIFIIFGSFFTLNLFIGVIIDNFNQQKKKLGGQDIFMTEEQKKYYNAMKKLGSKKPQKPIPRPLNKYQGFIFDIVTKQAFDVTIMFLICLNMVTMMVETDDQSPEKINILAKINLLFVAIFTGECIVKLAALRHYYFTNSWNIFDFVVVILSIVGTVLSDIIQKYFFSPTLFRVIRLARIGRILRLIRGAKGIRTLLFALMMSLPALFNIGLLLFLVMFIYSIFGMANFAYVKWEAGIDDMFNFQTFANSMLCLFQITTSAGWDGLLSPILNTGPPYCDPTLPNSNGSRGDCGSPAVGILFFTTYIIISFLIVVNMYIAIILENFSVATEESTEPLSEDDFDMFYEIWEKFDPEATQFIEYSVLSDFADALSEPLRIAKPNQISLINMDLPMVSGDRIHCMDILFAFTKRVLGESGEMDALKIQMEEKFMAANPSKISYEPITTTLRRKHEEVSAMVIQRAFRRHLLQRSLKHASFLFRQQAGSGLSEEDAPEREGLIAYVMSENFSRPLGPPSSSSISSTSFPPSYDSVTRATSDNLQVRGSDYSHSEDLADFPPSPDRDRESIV

Take `COc1cc(-c2cc(Cl)cs2)nn(CC(=O)Nc2ccn3ccnc3c2)c1=O` [Example 466]: the “Nav1.1 current amplification rate (%)” value at human Nav1.1 (setting [1]) came out at 233%. Besides, the “Nav1.5 current amplification rate (%)” value at human Nav1.5 (setting [2]) is 38%.

In the case of `COc1cc(C2=CCC(C)(C)CC2)nn(CC(=O)N2CCc3c(N4CCOCC4)cccc32)c1=O` [Example 468], on human Nav1.1 (setting [3]), the “Nav1.1 current amplification rate (%)” value amounted to 275%. On human Nav1.5 (setting [4]), the “Nav1.5 current amplification rate (%)” value is listed as 75%.

As for `O=C(Cn1nc(C2=CCC(F)(F)CC2)ccc1=O)N1CCc2c(N3CCOCC3)cccc21` [Example 469], the “Nav1.1 current amplification rate (%)” value on human Nav1.1 (setting [1]) is reported as 243%. Besides, at human Nav1.5 (setting [2]), the “Nav1.5 current amplification rate (%)” value is reported as 25%.

Regarding `COc1cc(=O)n(CC(=O)N2CCc3c(N4CCOCC4)cccc32)nc1C1=CCC(C)(C)CC1` [Example 470], on human Nav1.1 (setting [1]), the “Nav1.1 current amplification rate (%)” value was found to be 522%. Moreover, the “Nav1.5 current amplification rate (%)” value at human Nav1.5 (setting [2]) came out at 131%.

Take `CC1(C)CC=C(c2ccc(=O)n(CC(=O)N3CCc4c(N5CCOCC5)cccc43)n2)C1` [Example 475]: on human Nav1.1 (setting [1]), the “Nav1.1 current amplification rate (%)” value worked out at 633%. In addition, at human Nav1.5 (setting [2]), the “Nav1.5 current amplification rate (%)” value worked out at 70%.

For `COc1cc(-c2cc(Cl)cs2)nn(CC(=O)N2CCc3c(N4CCOCC4)cccc32)c1=O` [Example 479], the “Nav1.1 current amplification rate (%)” value at human Nav1.1 (setting [1]) was determined as 420%. In addition, the “Nav1.5 current amplification rate (%)” value at human Nav1.5 (setting [2]) is listed as 135%.

For `O=C(Cn1nc(C2=CCCCC2)ccc1=O)N1CCc2c(N3CCOCC3)cccc21` [Example 480], at human Nav1.1 (setting [3]), the “Nav1.1 current amplification rate (%)” value was found to be 110%. Besides, the “Nav1.5 current amplification rate (%)” value on human Nav1.5 (setting [4]) worked out at 7%.

Take `CC1(C)CC=C(c2ccc(=O)n(CC(=O)N3CCN(c4cncc(F)c4)CC3)n2)C1` [Example 483]: the “Nav1.1 current amplification rate (%)” value at human Nav1.1 (setting [1]) turned out to be 175%. In addition, on human Nav1.5 (setting [2]), the “Nav1.5 current amplification rate (%)” value was determined as 7%.

In the case of `COc1cc(C2=CCC(C)C2)nn(CC(=O)N2CCN(c3cncc(F)c3)CC2)c1=O` (stereo not shown) [Example 485], the “Nav1.1 current amplification rate (%)” value at human Nav1.1 (setting [1]) amounted to 264%. The “Nav1.5 current amplification rate (%)” value at human Nav1.5 (setting [2]) turned out to be 3%.

In the case of `O=C(Cn1nc(C2=CCC(F)(F)CC2)ccc1=O)N1CCN(c2cncc(F)c2)CC1` [Example 489], the “Nav1.1 current amplification rate (%)” value on human Nav1.1 (setting [1]) is 29%. The “Nav1.5 current amplification rate (%)” value on human Nav1.5 (setting [2]) was 0%.

Turning to `COc1cc(=O)n(CC(=O)N2CCN(c3cncc(F)c3)CC2)nc1C1=CCC(C)(C)CC1` [Example 490], at human Nav1.1 (setting [1]), the “Nav1.1 current amplification rate (%)” value came out at 469%. Besides, at human Nav1.5 (setting [2]), the “Nav1.5 current amplification rate (%)” value was found to be 25%.

Regarding `COc1nc2cc(NC(=O)Cn3nc(C4=CCC(C)(C)CC4)c(OC)cc3=O)ccc2o1` [Example 491], the activation at 3 µM at human Nav1.1 (setting [5]) is 157%; on human Nav1.5 (setting [6]), 22%.

As for `COc1cc(=O)n(CC(=O)Nc2ccc3oc(C)nc3c2)nc1C1=CCC(C)(C)CC1` [Example 492], the activation at 3 µM was 222% on human Nav1.1 (setting [5]) and 16% at human Nav1.5 (setting [6]).

For `COc1cc(=O)n(CC(=O)Nc2ccc3oc(C(F)F)nc3c2)nc1C1=CCC(C)(C)CC1` [Example 493], the activation at 3 µM on human Nav1.1 (setting [5]) was 317%; on human Nav1.5 (setting [6]), 20%.

Regarding `COc1nc2cc(NC(=O)Cn3nc(C4=CCC(C)(C)CC4)c(OC)cc3=O)cc(F)c2o1` [Example 494], the activation at 3 µM was 255% on human Nav1.1 (setting [5]) and 26% at human Nav1.5 (setting [6]).

Consider `Cc1cc(=O)n(CC(=O)Nc2ccn3ncnc3c2)nc1C1=CCC(C)CC1` (stereo not shown) [Example 502], for which the activation at 1 µM is 49% on human Nav1.1 (setting [3]) and 7% on human Nav1.5 (setting [4]).

With `Cc1cc(=O)n(CC(=O)Nc2ccn3ncnc3c2)nc1C1=CCC(C)(C)CC1` [Example 503], the activation at 1 µM at human Nav1.1 (setting [3]) stood at 58%; on human Nav1.5 (setting [4]) it was 10%.

Regarding `CC1(C)CC=C(c2ccc(=O)n(CC(=O)N3CCN(c4cccnc4)CC3)n2)C1` [Example 508], the activation at 10 µM is 24% at human Nav1.1 (setting [1]) and -3% at human Nav1.5 (setting [2]).

Consider `O=C(Cn1nc(C2=CCC3(CC2)CC3(F)F)ccc1=O)N1CCN(c2cncc(C(F)(F)F)c2)CC1` (stereo not shown) [Example 509], for which the activation at 3 µM on human Nav1.1 (setting [5]) is 238%; at human Nav1.5 (setting [6]), 5%.

For the compound `COc1ncc(C2=CCN(C(=O)Cn3nc(C4=CCC(C(F)(F)F)CC4)ccc3=O)CC2)cn1` (stereo not shown) [Example 510], the activation at 3 µM on human Nav1.1 (setting [5]) came out at 50%; at human Nav1.5 (setting [6]) it was 7%.

Regarding `COc1ccc(N2CCN(C(=O)Cn3nc(C4=CCC(C(F)(F)F)CC4)ccc3=O)CC2)cn1` (stereo not shown) [Example 511], the activation at 3 µM on human Nav1.1 (setting [5]) was determined as 37%; on human Nav1.5 (setting [6]) it was 6%.

`O=C(Cn1nc(C2=CCC3(CC2)CC3)ccc1=O)Nc1ccn2ncnc2c1` [Example 512, 2-[6-oxo-3-(spiro[2.5]oct-5-en-6-yl)pyridazin-1(6H)-yl]-N-([1,2,4]triazolo[1,5-a]pyridin-7-yl)acetamide]: the values for the activation at 1 µM on human Nav1.1 (setting [3]) and at human Nav1.5 (setting [4]) were 103% and 34%, respectively.

On to `Cc1cc(C2=CCC(C)(C)CC2)nn(CC(=O)N2CCN(c3cccnc3)CC2)c1=O` [Example 513], for which the results for the activation at 10 µM on human Nav1.1 (setting [1]) and on human Nav1.5 (setting [2]) were 262% and 4%, respectively.

Turning to `O=C(Cn1nc(C2=CCCCC2)ccc1=O)N1CCc2c(Cn3ccnc3)cccc21` [Example 515], the activation at 1 µM at human Nav1.1 (setting [3]) amounted to 255%; on human Nav1.5 (setting [4]), 287%.

With `Cc1ccc(-c2ccc(=O)n(CC(=O)N3CCc4c(C5CN(C6COC6)C5)cccc43)n2)cc1` [Example 516], the activation at 1 µM on human Nav1.1 (setting [3]) was 130%; on human Nav1.5 (setting [4]), 13%.

For the compound `O=C(Cn1nc(C2=CCCCC2)ccc1=O)N1CCc2c(-c3ccnnc3)cccc21` [Example 517], the activation at 1 µM came to 359% at human Nav1.1 (setting [3]) and 16% at human Nav1.5 (setting [4]).

In the case of `Cc1ncc(-c2cccc3c2CCN3C(=O)Cn2nc(C3=CCCCC3)ccc2=O)cn1` [Example 518], the activation at 1 µM at human Nav1.1 (setting [3]) amounted to 344%; at human Nav1.5 (setting [4]), 9%.

`CC(=O)N1CC(c2cccc3c2CCN3C(=O)Cn2nc(-c3ccc(C)cc3)ccc2=O)C1` [Example 520]: the figures for the activation at 1 µM on human Nav1.1 (setting [3]) and at human Nav1.5 (setting [4]) were 253% and 252%, respectively.

On to `O=C(Cn1nc(C2=CCCCC2)ccc1=O)N1CCc2c(-c3cnccn3)cccc21` [Example 521], for which the activation at 1 µM at human Nav1.1 (setting [3]) turned out to be 358%; on human Nav1.5 (setting [4]), 9%.

As for `O=C(Cn1nc(C2=CCCCC2)ccc1=O)N1CCc2c(-c3cncnc3)cccc21` [Example 522], the values for the activation at 1 µM at human Nav1.1 (setting [3]) and on human Nav1.5 (setting [4]) were 367% and 25%, respectively.

With `O=C(Cn1nc(C2=CCCC2)ccc1=O)N1CCc2c(-c3ccnnc3)cccc21` [Example 523], the activation at 1 µM at human Nav1.1 (setting [3]) was 129%; at human Nav1.5 (setting [4]), 5%.

Consider `O=C(Cn1nc(C2=CCCC2)ccc1=O)N1CCc2c(-c3cccnc3)cccc21` [Example 524], for which the activation at 1 µM stood at 143% on human Nav1.1 (setting [3]) and 5% on human Nav1.5 (setting [4]).

For the compound `O=C(Cn1nc(C2=CCC3(CC2)CC3)ccc1=O)N1CCc2c(-c3ccnnc3)cccc21` [Example 526, 2-{2-oxo-2-[4-(pyridazin-4-yl)-2.3-dihydro-1H-indol-1-yl]ethyl}-6-(spiro[2.5]oct-5-en-6-yl)pyridazin-3(2H)one], the activation at 1 µM is 499% at human Nav1.1 (setting [3]) and 1% on human Nav1.5 (setting [4]).

As for `O=C(Cn1nc(C2=CCC(F)(F)CC2)ccc1=O)N1CCc2c(-c3ccnnc3)cccc21` [Example 527], the activation at 1 µM came out at 324% on human Nav1.1 (setting [3]) and 36% on human Nav1.5 (setting [4]).

As for `O=C(Cn1nc(C2=CCCCC2)ccc1=O)N1CCc2c(C3=CCOCC3)cccc21` [Example 528], the activation at 1 µM on human Nav1.1 (setting [3]) was 198%; at human Nav1.5 (setting [4]), 24%.

For the compound `CC1CC=C(c2ccc(=O)n(CC(=O)Nc3ccc4ocnc4c3)n2)CC1` (stereo not shown) [Example 531, N-(1,3-benzooxazol-5-yl)-2-[3-(4-methylcyclohex-1-en-1-yl)-6-oxopyridazin-1(6H)-yl]acetamide], the values for the activation at 1 µM at human Nav1.1 (setting [3]) and on human Nav1.5 (setting [4]) were 183% and 8%, respectively.

As for `CC1CC=C(c2ccc(=O)n(CC(=O)Nc3ccn4ccnc4c3)n2)CC1` (stereo not shown) [Example 532], the activation at 10 µM on human Nav1.1 (setting [1]) is 239%; at human Nav1.5 (setting [2]) it was 47%.

With `C[C@@H]1CC=C(c2ccc(=O)n(CC(=O)Nc3ccn4ncnc4c3)n2)CC1` [Example 537, 2-{3-[(4S)-4-methylcyclohex-1-en-1-yl]-6-oxopyridazin-1(6H)-yl}-N-([1,2,4]triazolo[1,5-a]pyridin-7-yl)acetamide], the activation at 1 µM at human Nav1.1 (setting [3]) came out at 99%; at human Nav1.5 (setting [4]) it was 29%.

Take `C[C@H]1CC=C(c2ccc(=O)n(CC(=O)Nc3ccn4ncnc4c3)n2)CC1` [Example 538, 2-{3-[(4R)-4-methylcyclohex-1-en-1-yl]-6-oxopyridazin-1(6H)-yl}-N-([1,2,4]triazolo[1,5-a]pyridin-7-yl)acetamide]: the activation at 1 µM at human Nav1.1 (setting [3]) is 135%; at human Nav1.5 (setting [4]) it was 45%.

On to `C[C@@H]1CC=C(c2ccc(=O)n(CC(=O)Nc3ccc4ncnn4c3)n2)CC1` [Example 539, 2-{3-[(4S)-4-methylcyclohex-1-en-1-yl]-6-oxopyridazin-1(6H)-yl}-N-([1,2,4]triazolo[1,5-a]pyridin-6-yl)acetamide], for which the activation at 1 µM came to 80% on human Nav1.1 (setting [3]) and 11% on human Nav1.5 (setting [4]).

Turning to `C[C@H]1CC=C(c2ccc(=O)n(CC(=O)Nc3ccc4ncnn4c3)n2)CC1` [Example 540, 2-{3-[(4R)-4-methylcyclohex-1-en-1-yl]-6-oxopyridazin-1(6H)-yl}-N-([1,2,4]triazolo[1,5-a]pyridin-6-yl)acetamide], the activation at 1 µM at human Nav1.1 (setting [3]) is 112%; at human Nav1.5 (setting [4]) it was 15%.
